Measured values reported in patent publication US20090005270A1 (priority 2005, published 2009).
Read-outs that look alike come from different tables or passages of the source.

Experiments:
[1] = cited from earlier work
[2] = in vivo; cited from earlier work
[3] = poor metabolizers, 15 mg dose; cited from earlier work
human recombinant CYP2A6 [4] = target: T1, human recombinant CYP2A6 (Homo sapiens, UniProt P10635); experiment: biochemical
human recombinant CYP3A4 = human recombinant CYP3A4 (Homo sapiens, UniProt P08684); experiment: Inhibition of dibenzylfluorescein metabolism by cDNA-expressed CYP3A4 (fluorimetric); conditions: read-out: IC50 (concentration that yields 50% inhibition of the metabolism of dibenzyl-fluorescein), dibenzyl-fluorescein 5 · 10^−7 M
Sequence of human recombinant CYP3A4 (P08684 whole entry): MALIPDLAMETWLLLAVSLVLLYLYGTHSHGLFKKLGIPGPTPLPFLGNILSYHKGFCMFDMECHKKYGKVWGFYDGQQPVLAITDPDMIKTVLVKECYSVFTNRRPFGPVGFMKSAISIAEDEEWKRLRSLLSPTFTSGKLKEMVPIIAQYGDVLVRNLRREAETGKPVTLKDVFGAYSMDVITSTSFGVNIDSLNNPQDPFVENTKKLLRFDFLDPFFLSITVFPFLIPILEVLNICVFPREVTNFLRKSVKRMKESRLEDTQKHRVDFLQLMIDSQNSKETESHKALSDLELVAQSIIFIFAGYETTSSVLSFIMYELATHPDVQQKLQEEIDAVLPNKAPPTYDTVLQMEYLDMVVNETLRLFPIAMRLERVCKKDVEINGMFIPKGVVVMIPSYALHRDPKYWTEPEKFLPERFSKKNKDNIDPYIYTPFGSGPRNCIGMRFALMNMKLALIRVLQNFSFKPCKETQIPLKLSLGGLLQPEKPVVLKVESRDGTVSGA

human recombinant CYP2A6 [5] = target: T1, human recombinant CYP2A6; conditions: recombinant enzyme

T1 sequence (P10635 whole entry): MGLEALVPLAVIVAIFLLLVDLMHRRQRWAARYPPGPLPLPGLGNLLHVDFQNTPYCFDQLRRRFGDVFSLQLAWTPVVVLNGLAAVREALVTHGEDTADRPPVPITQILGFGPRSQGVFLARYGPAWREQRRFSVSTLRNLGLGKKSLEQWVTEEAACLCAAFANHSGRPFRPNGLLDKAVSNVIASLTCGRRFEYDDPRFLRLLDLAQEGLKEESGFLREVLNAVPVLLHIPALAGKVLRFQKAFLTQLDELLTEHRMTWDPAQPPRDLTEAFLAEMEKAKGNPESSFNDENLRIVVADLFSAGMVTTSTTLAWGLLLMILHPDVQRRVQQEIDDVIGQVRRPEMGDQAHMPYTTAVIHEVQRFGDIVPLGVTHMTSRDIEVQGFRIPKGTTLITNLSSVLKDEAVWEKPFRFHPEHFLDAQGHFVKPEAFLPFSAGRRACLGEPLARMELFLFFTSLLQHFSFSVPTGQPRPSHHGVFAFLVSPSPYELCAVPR

Which plasma level ([1]; fast metabolizers, 30 mg dose, four hours post ingestion) does the source give for Br.COc1ccc2c(c1)[C@@]13CCCC[C@H]1[C@@H](C2)N(C)CC3.O [Dextromethorphan, 3 Methoxy-17-methylmorphinan hydrobromide monohydrate] here?
Its plasma level is “less than 5 ng/mL”.

And the plasma level ([1]; intermediate metabolizers, oral 30 mg, 4 hours)?
Its plasma level is 10 to 20 ng/mL.

What about the plasma level ([1]; intermediate metabolizers, oral 30 mg, 24 hours postingestion) of the same compound?
Its plasma level is “less than 5 ng/mL”.

And the plasma level ([1]; oral 30 mg, 4 hours (continues the poor metabolizers passage of b121))?
Its plasma level is “greater than 10 ng/mL”.

What about the plasma level ([1]; oral 30 mg, 24 hours (continues the poor metabolizers passage of b121)) of the same compound?
Its plasma level is “greater than 5 ng/mL”.

What about the “part of the dose forming minor metabolites (D-methoxymorphinane, D-hydroxmorphinane)” value [2] of the same compound?
Its value is “Less than 15%”.

And the “ratio of metabolite to parent drug in 8 hour urine sample” value [3]?
The value was 10 to 1.

What about the IC50 (human recombinant CYP2A6 [4]) of the same compound?
The IC50 was 1820 nM.

Which IC50 (human recombinant CYP3A4) does the source give for COc1ccc(CCN(CCCC(C#N)(c2ccc(OC)c(OC)c2)C(C)C)CC(F)(F)F)cc1OC (stereo not shown) [N-(2,2,2-trifluoroethyl)norverapamil] here?
The IC50 was 1930 nM.

For CN1CC[C@]23CCCC[C@H]2[C@H]1Cc1ccc(OCC(F)(F)F)cc13 [O-(2,2,2-trifluoroethyl)-N-methylmorphinan], which IC50 (human recombinant CYP2A6 [5]) is on record?
The IC50 was 425 nM.
